Assay results from patent US11401254B2, “Substituted thiophenecarboxamides and analogues as antibacterials agents” (Bayer Aktiengesellschaft, priority 2018, dated 2022).

Experiments:
[1] = test system: Xanthomonas campestris pv. campestris; assay: In vivo preventive test on Xanthomonas campestris pv. campestris (black rot on cabbage); conditions: Example C comparative table; same conditions as described in Example B; concentration not given
Procedure: Example B: In Vivo Preventive Test on Xanthomonas campestris pv. Campestris (Black Rot on Cabbage)
The tested compounds were prepared by homogenization in a mixture of acetone/Dimethyl sulfoxide/Tween®, and then diluted with water to obtain the desired concentration.
The young plants of cabbage were treated by spraying the compound prepared as described above. Control plants were treated only with an aqueous solution of acetone/Dimethyl sulfoxide/Tween®.
After 72 hours, the plants were contaminated by spraying the leaves with an aqueous bacteria suspension of Xanthomonas campestris pv. campestris. The contaminated cabbage plants were incubated for 8 or 10 days at 27° C. at 95% relative humidity.
The test was evaluated 8 or 10 days after the inoculation. 0% means an efficacy which corresponds to that of the control plants while an efficacy of 100% means that no disease was observed.
Compounds CMP3, CMP4, CMP5 and CMP6 were tested in an in vivo preventive test on Xanthomonas campestris pv. campestris (black rot on cabbage) in the same conditions as described in Example B.

[2] = Log P by HPLC on reversed phase columns (EEC directive 79/831 Annex V.A8); format: physicochemical; conditions: for chromatographic logP: reversed phase HPLC columns
Procedure: In the above tables, measurement of Log P values was performed according to EEC directive 79/831 Annex V.A8 by HPLC (High Performance Liquid Chromatography) on reversed phase columns with the following methods: • ^[a]
If more than one Log P value is available within the same method, all the values are given and separated by “+”.
Calibration was done with straight-chain alkan2-ones (with 3 to 16 carbon atoms) with known Log P values (measurement of Log P values using retention times with linear interpolation between successive alkanones). Lambda-max-values were determined using UV-spectra from 200 nm to 400 nm and the peak values of the chromatographic signals.

[3] = test system: Xanthomonas campestris pv. campestris; assay: Xanthomonas campestris pv. campestris in vitro cell test (bacteria growth in liquid culture); format: cell-based; conditions: 20 ppm of tested compound; 24 h of incubation
Procedure: Example A: Xanthomonas Campestris pv. Campestris In Vitro Cell Test
Culture medium: LB broth medium (Luria Broth Miller) Sigma
Inoculum: bacteria suspension
Compounds to be tested were solubilized in DMSO and the solution used to prepare the required range of concentrations. The final concentration of DMSO used in the assay was ≤1%.
Inoculum was prepared from a pre-culture of bacteria grown in liquid medium and diluted to the desired optical density (OD).
Compounds were evaluated for their ability to inhibit bacteria growth in liquid culture assay. The compounds were added in the desired concentrations to culture medium containing the bacteria suspension. After 24 h of incubation, the efficacy of compounds was determined by spectrometric measurement of bacteria growth. Inhibition was determined by comparing the absorbance values in wells containing the compounds with the absorbance in control wells without compounds.

[4] = method [a]: LC-UV, acidic range, 0.1% formic acid in water and acetonitrile as eluent
[5] = value given in preparation example, method variant not stated

Row | SMILES | Efficacy (%) [1] [%] | chromatographic logP [2, 4] | chromatographic logP [2, 5] | direct activity (inhibition of bacteria growth) [3] | LogP [2, 4]
1 | CCOC(=O)[C@@H](NC(=O)c1sc(Br)c(Br)c1C)C(C)C (racemic) [I.04, ethyl N-[(4,5-dibromo-3-methyl-2-thienyl)carbonyl]-valinate] | >90 | 4.32 | 4.32 | no direct activity | 
2 | Cc1c(C(=O)NC(CC(C)C)C(=O)O)sc(Br)c1Br (stereo not shown) [I.90] | >70 |  |  |  | 
3 | CCOC(=O)C(NC(=O)c1sc(Br)c(Br)c1Br)C(C)C (stereo not shown) [CMP3, reference compound] | 33 |  |  |  | 
4 | COC(=O)C(CCSC)NC(=O)c1sc(Cl)c(Cl)c1C (stereo not shown) [I.35] |  |  |  | no direct activity | 3.55^[a]
5 | Cc1c(C(=O)NCC(=O)OC(C)C)sc(Cl)c1Cl [I.41] |  |  |  | no direct activity | 3.29^[a]
6 | Cc1c(C(=O)NCC(=O)O)sc(Br)c1Br [I.10] |  |  |  | no direct activity | 2.05^[a]
7 | CCOC(=O)C(C)NC(=O)c1sc(Cl)c(Cl)c1C (stereo not shown) [I.27] |  |  |  | no direct activity | 3.31^[a]
8 | CCOC(=O)[C@H](CC(C)C)NC(=O)c1sc(Cl)c(Cl)c1C [I.33] |  |  |  | no direct activity | 4.54^[a]
9 | C#CCOC(=O)C(NC(=O)c1sc(Br)c(Br)c1C)C(C)C (stereo not shown) [I.13] |  |  |  | no direct activity | 4.06^[a]
10 | CCOC(=O)C(CC(C)C)NC(=O)c1sc(Br)c(Br)c1C (stereo not shown) [I.05] |  |  |  | no direct activity | 4.56^[a]
11 | CCOC(=O)[C@H](CCSC)NC(=O)c1sc(Cl)c(Cl)c1C [I.24] |  |  |  | no direct activity | 3.94^[a]
12 | Cc1c(C(=O)NC(C(=O)OC2CSC2)C(C)C)sc(Br)c1Br (stereo not shown) [I.17] |  |  |  | no direct activity | 4.67^[a]
13 | CCOC(=O)CNC(=O)c1sc(Br)c(Br)c1C [I.02] | >80 |  |  | no direct activity | 3.02^[a]
14 | CCOC(=O)C(Cc1ccc(O)cc1)NC(=O)c1sc(Cl)c(Cl)c1C (stereo not shown) [I.39] |  |  |  | no direct activity | 3.29^[a]
15 | CCOC(=O)CNC(=O)c1sc(Br)c(Br)c1Br [CMP4, reference compound] | 0 |  |  |  | 
16 | Cc1c(C(=O)NC(C(=O)OCC(C)C)C(C)C)sc(Br)c1Br (stereo not shown) [I.14] |  |  |  | no direct activity | 5.22^[a]
17 | Cc1c(C(=O)NC(C(=O)OCc2ccccc2)C(C)C)sc(Br)c1Br (stereo not shown) [I.57] |  |  |  | no direct activity | 5.03^[a]
18 | Cc1c(C(=O)NC(C(=O)OC2CCC2)C(C)C)sc(Br)c1Br (stereo not shown) [I.53] |  |  |  | no direct activity | 4.98^[a]
19 | COC(=O)[C@@H](NC(=O)c1sc(Br)c(Br)c1C)C(C)C [I.11] |  |  |  | no direct activity | 3.87^[a]
20 | CCOC(=O)C(Cc1ccccc1)NC(=O)c1sc(Cl)c(Cl)c1C (stereo not shown) [I.38] |  |  |  | no direct activity | 4.46^[a]
21 | Cc1c(C(=O)NC(C(=O)OCC#N)C(C)C)sc(Br)c1Br (stereo not shown) [I.15] |  |  |  | no direct activity | 3.69^[a]
22 | COC(=O)CNC(=O)c1sc(Cl)c(Cl)c1C [I.31] |  |  |  | no direct activity | 2.51^[a]
23 | CCOC(=O)C(CC(C)C)NC(=O)c1sc(Cl)c(Cl)c1C (stereo not shown) [I.37] |  |  |  | no direct activity | 4.51^[a]

Row | SMILES | Efficacy (%) [1] [%] | chromatographic logP [2, 4] | chromatographic logP [2, 5] | direct activity (inhibition of bacteria growth) [3] | LogP [2, 4]
24 | C=CCOC(=O)C(NC(=O)c1sc(Br)c(Br)c1C)C(C)C (stereo not shown) [I.58] |  |  |  | no direct activity | 4.46^[a]
25 | CCOC(=O)C1(NC(=O)c2sc(Cl)c(Cl)c2C)CC1 [I.43] |  |  |  | no direct activity | 3.08^[a]
26 | CCOC(=O)[C@@H](NC(=O)c1sc(Br)c(Br)c1C)C(C)C [I.08] |  |  |  | no direct activity | 4.32^[a]
27 | Cc1c(C(=O)NC(C(=O)OC[Si](C)(C)C)C(C)C)sc(Br)c1Br (stereo not shown) [I.20] |  |  |  | no direct activity | 5.78^[a]
28 | CCOC(=O)C(CCSC)NC(=O)c1sc(Cl)c(Cl)c1C (stereo not shown) [I.47] |  |  |  | no direct activity | 3.94^[a]
29 | CCOC(=O)C(Cc1ccc(O)cc1)NC(=O)c1sc(Br)c(Br)c1C (stereo not shown) [I.23] |  |  |  | no direct activity | 3.33^[a]
30 | CCOC(=O)[C@@H](C)NC(=O)c1sc(Cl)c(Cl)c1C [I.42] |  |  |  | no direct activity | 3.31^[a]
31 | Cc1c(C(=O)NC(C(=O)OCC(F)(F)F)C(C)C)sc(Br)c1Br (stereo not shown) [I.59] |  |  |  | no direct activity | 4.51^[a]
32 | Cc1c(C(=O)NC(C(=O)OC2CC2)C(C)C)sc(Br)c1Br (stereo not shown) [I.56] |  |  |  | no direct activity | 4.37^[a]
33 | CCOC(=O)C1(NC(=O)c2sc(Br)c(Br)c2C)CC1 [I.01, ethyl 1-{[(4,5-dibromo-3-methyl-2-thienyl)carbonyl]amino}cyclopropanecarboxylate] |  | 3.19 | 3.22 | no direct activity | 
34 | Cc1c(C(=O)NC(C)C(=O)O)sc(Br)c1Br (stereo not shown) [I.79] | >70 |  |  |  | 2.39^[a]
35 | Cc1c(C(=O)NC(C(=O)OC(C)(C)C)C(C)C)sc(Br)c1Br (stereo not shown) [I.61] |  |  |  | no direct activity | 5.25^[a]
36 | Cc1c(C(=O)NCC(=O)OC(C)(C)C)sc(Cl)c1Cl [I.28] |  |  |  | no direct activity | 3.77^[a]
37 | CC(C)CC(NC(=O)c1cc(Br)c(Br)s1)C(=O)O (stereo not shown) [CMP6, reference compound] | 15 |  |  |  | 
38 | Cc1c(C(=O)N[C@H](C(=O)O)C(C)C)sc(Br)c1Br (racemic) [I.07, N-[(4,5-dibromo-3-methyl-2-thienyl)carbonyl]-valine] |  | 2.92 | 2.92 | no direct activity | 
39 | CCCOC(=O)C(NC(=O)c1sc(Br)c(Br)c1C)C(C)C (stereo not shown) [I.54] |  |  |  | no direct activity | 4.77^[a]
40 | CCOC(=O)[C@@H](Cc1ccccc1)NC(=O)c1sc(Cl)c(Cl)c1C [I.45] |  |  |  | no direct activity | 4.46^[a]
41 | CCOC(=O)C(C)NC(=O)c1sc(Br)c(Br)c1C (stereo not shown) [I.21] |  |  |  | no direct activity | 3.39^[a]
42 | Cc1c(C(=O)NC(C(=O)Oc2ccccc2)C(C)C)sc(Br)c1Br (stereo not shown) [I.60] |  |  |  | no direct activity | 4.85^[a]
43 | CCCCOC(=O)C(NC(=O)c1sc(Br)c(Br)c1C)C(C)C (stereo not shown) [I.55] |  |  |  | no direct activity | 5.25^[a]
44 | CCOC(=O)[C@H](Cc1ccccc1)NC(=O)c1sc(Cl)c(Cl)c1C [I.26] |  |  |  | no direct activity | 4.46^[a]
45 | COC(=O)[C@H](CCSC)NC(=O)c1sc(Cl)c(Cl)c1C [I.30] |  |  |  | no direct activity | 3.55^[a]
